Experimental data: US20210000815A1, “PHARMACOKINETIC ENHANCEMENT OF EZH2 INHIBITORS THROUGH COMBINATION THERAPIES” (Constellation Pharmaceuticals, Inc., priority 2017, published 2021)
“Also recorded” adds a separate entry of the source.

Assays:
[1] = Exposure of Compound 1 upon multiple-dose administration; format: in vivo
[2] = Single-dose pharmacokinetics of Compound 1 with or without cobicistat pretreatment in healthy subjects; format: in vivo, human
Description: (§1) Healthy subjects were treated with Compound 1 with or without pretreatment with cobicistat. A single 400 mg dose of Compound 1 was administered under fasted conditions. There was a 7-day washout between administrations of the two single doses of Compound 1. Compound 1 was administered alone on Day 1 of Period 1 and administered in the presence of cobicistat on Day 1 of Period 2. Cobicistat was administered at a dose of 150 mg once daily for three days, with the third dose preceding the single dose of Compound 1 by two hours. Blood samples were collected for pharmacokinetic analysis of Compound 1 on Day 1 of each period at the following time points 0 (predose), 0.5, 1, 1.5, 2, 3, 4, 6, 8, 10, and 24 hours after the single dose of Compound 1.

[3] = Adverse events in healthy subjects treated with Compound 1 with and without cobicistat; format: in vivo, human
Description: as §1
All six subjects were males between the ages of 31 and 52 years. Three of the 6 subjects (50%) treated with Compound 1 with and without cobicistat reported a total of 6 adverse events. Diarrhea, reported in 2 subjects, was the only adverse event reported by more than one subject. The other adverse events reported by a single subject each included: abdominal pain, back pain, groin pain, and upper respiratory tract infection. Three of the 6 adverse events were considered to be related to study drug: concurrent events of diarrhea and abdominal pain and the other case of diarrhea. All adverse events were reported in Period 2, after dosing of all study drugs had been completed.

CYP3A = experiment: Metabolism by and induction of hepatic enzyme CYP3A; format: in vitro ADME
[4] = single 400 mg Compound 1 with cobicistat 150 mg pretreatment vs alone
[5] = single 400 mg Compound 1 with cobicistat 150 mg pretreatment vs alone, lower bound over all subjects
[6] = 6 healthy male subjects, Compound 1 with and without cobicistat

Reduction in AUC with multiple doses [1]: approximately 60% | half-life ([2]; male, human, plasma, oral, all subjects treated with Compound 1 and cobicistat): < 5 h | Clearance decrease in the presence of cobicistat [2, 4]: 6.9 fold | Effect of cobicistat on Tmax [2, 4]: unaffected | AUC increase in the presence of cobicistat, all subjects (least) [2, 5]: ≥ 4.9 fold | Cmax increase in the presence of cobicistat, all subjects (least) [2, 5]: ≥ 2.8 fold | Cmin increase in the presence of cobicistat, all subjects (least) [2, 5]: ≥ 19 fold | Exposure of Compound 1 400 mg with cobicistat 150 mg in healthy subjects compared with single 1600 mg dose of Compound 1 alone in patients with lymphoma ([2]; single dose): remarkably similar | CYP3A induction (CYP3A): stronger inducer of CYP3A
SMILES: COc1cc(C)[nH]c(=O)c1CNC(=O)c1c(C)n([C@H](C)C2CCN(CC(F)(F)F)CC2)c2ccccc12 [Compound 1, (R)—N-((4-methoxy-6-methyl-2-oxo-1,2-dihydropyridin-3-yl)methyl)-2-methyl-1-(1-(1-(2,2,2-trifluoroethyl)piperidin-4-yl)ethyl)-1H-indole-3-carboxamide]
Effect of cobicistat on terminal half-life (T1/2) [2, 4]: unaffected; also recorded: little or no effect | Number of subjects reporting diarrhea [3, 6]: 2 subjects | Subjects reporting adverse events [3, 6]: 50% | Total number of adverse events reported [3, 6]: 6 | Severity of adverse events ([3]; with the exception of a moderate case of upper respiratory tract infection): mild in severity | Primary metabolizing enzyme (CYP3A): primarily metabolized by the hepatic enzyme CYP3A
